Source: patent publication US20190247353A1, “ACNE STRAIN-SELECTIVE ANTIBACTERIAL AGENT” (MOMOTANI JUNTENKAN CO., LTD., priority 2016, published 2019)
In brackets after ≈: the same amount, converted by molar mass. Like-named read-outs stand apart in the source and are kept apart here. Each block holds one compound with its values, some of them ahead of it.

Tests used:
Format in all cases: cell-based, Propionibacterium acnes
HL110PA3 strain (RT6) [1] = assay: MIC by broth microdilution method, HL110PA3 strain; details: Cutibacterium acnes, read-out: MIC against acne bacterium strain HL110PA3 strain (RT6)
HL053PA1 strain (RT4) = assay: MIC by broth microdilution method, HL053PA1 strain; details: for MIC: Cutibacterium acnes, read-out: MIC against acne bacterium strain HL053PA1 strain (RT4)
Method: (§1) An MIC is measured herein according to the broth microdilution method which is the standard method of Japanese Society of Chemotherapy.
(§2) The antibacterial activity of a test substance was determined based on the minimum inhibitory concentration (MIC). An MIC was measured according to the broth microdilution method which is the standard method of Japanese Society of Chemotherapy.
(§3) One-loopful of each acne bacterium strain listed in Table 1 was scraped off and inoculated into 5 mL of a GAM broth slant agar medium (pH 7.0, Nissui Pharmaceutical Co., Ltd.).
(§4) The inoculated acne bacterium strain was precultured at 37° C. in a nitrogen atmosphere (anaerobic condition) for 48 hours. The precultured microbial cells were diluted in a modified GAM broth liquid medium (pH 6.0) to a concentration of 5.0×10^4 cfu/mL (viable cell count per OD660=1 is 2.0×10^9 cfu/mL), to prepare strain suspensions.
(§5) Each fatty acid (Tokyo Chemical Industry Co., Ltd.) listed in Table 2 was dissolved in dimethylsulfoxide (DMSO) as a solvent such that the concentration became 10,000 μg/mL, and used as a test substance.
(§6) Each of strain suspensions (5.0×10^4 cfu/mL) was aliquoted in a 96-well round bottom microplate, each of the test substance (fatty acid concentration 10,000 μg/mL) was added at a 1/10 volume to the aliquot and mixed to prepare measurement samples (fatty acid concentration: 1,000 μg/mL). Measurement samples in 2-fold dilution series were prepared using the strain suspension (fatty acid concentration from 0.48 to 1,000 μg/mL).
(§7) […] The presence or absence of a precipitation of test microbial cells after the incubation was examined and the minimum concentration at which the precipitation of microbial cells […] was regarded as the MIC (μg/mL) of the test substance against the acne bacterium strain.

HL043PA1 strain (RT5) = assay: MIC by broth microdilution method, HL043PA1 strain; details: for MIC: Cutibacterium acnes, read-out: MIC against acne bacterium strain HL043PA1 strain (RT5)
Method: as §1, §2, §3
The inoculated acne bacterium strain was precultured at 37° C. in a nitrogen atmosphere (anaerobic condition) for 48 hours. […]
as §5, §6
The measurement samples were incubated under an anaerobic condition at 37° C. for 2 days. The presence or absence of a precipitation of test microbial cells after the incubation was examined and the minimum concentration at which the precipitation of microbial cells […] was regarded as the MIC (μg/mL) of the test substance against the acne bacterium strain.

[2] = test system: HL053PA1 strain (RT4) and HL043PA1 strain (RT5) versus HL110PA3 strain (RT6); assay: Strain-selective antibacterial activity (average of MICRT6/MICRT4 and MICRT6/MICRT5)
From the text: Herein, “acne strain-selective antibacterial activity” or “strain-selective antibacterial activity” means an index indicating better inhibition of growth of a dominant strain in acne patients compared to that of a dominant strain in healthy subjects. It is expressed by the average value of the values (MICRT6/MICRT4, and MICRT6/MICRTS) obtained by dividing the minimum inhibitory concentration (MIC) of an object substance with respect to the dominant strain in healthy subjects (RT6 strain) (MICRT6) respectively by the MIC of the object substance with respect to the dominant strain in acne patients (RT4 strain) (MICRT4), and by the MIC of the object substance with respect to the dominant strain in acne patients (RT5 strain) (MICRT5).
The strain-selective antibacterial activity of each test substance (Table 2, right-most column) was evaluated based on the following rating criteria (Table 3). When the strain-selective antibacterial activity is indicated by a numerical range, the rating was based on the minimum value thereof.

HL110PA3 strain (RT6) [3] = assay: MIC by broth microdilution method, HL110PA3 strain; details: for MIC: Cutibacterium acnes, read-out: MIC against acne bacterium strain HL110PA3 strain (RT6)
Method: as §1, §2, §3, §4, §5, §6, §7

[4] = monoacylglycerols, Example 3, method as Example 1
[5] = 48 h, pH 6.0 modified GAM broth, anaerobic, 37° C., 2 days (Example 1)
[6] = control antibiotics, Comparative Example 2, method as Example 1
[7] = 72 h, pH 5.0, estimated from the growth on day 3
[8] = control antibacterial agents, Comparative Example 1
[9] = control antibacterial agents, Comparative Example 1, method as Example 1

Compound: CCCCCCCC/C=C\CCCCCCCC(=O)O [Oleic acid (C18:1), Oleic acid]
Strain-selective antibacterial activity ([2]; pH 6.0 (Example 1)): >9.0 | Strain-selective antibacterial activity at each pH ([2]; pH 6 (summary Table 10)): >9 | MIC (HL110PA3 strain (RT6) [3]; [5]): > 1000 µg/mL | MIC (HL053PA1 strain (RT4); [5]): 500 µg/mL (≈ 1770 µM) | MIC (HL043PA1 strain (RT5); [5]): 62.5 µg/mL (≈ 221 µM)

Compound: CCCCCC/C=C\CCCCCCCC(=O)O [Palmitoleic acid (C16:1), Palmitoleic acid, reference compound]
Strain-selective antibacterial activity ([2]; pH 6.0 (Example 1)): 1.2 | MIC (HL110PA3 strain (RT6) [3]; [5]): 15.6 µg/mL (≈ 61.3 µM) | MIC (HL053PA1 strain (RT4); [5]): 31.3 µg/mL (≈ 123 µM) | MIC (HL043PA1 strain (RT5); [5]): 7.81 µg/mL (≈ 30.7 µM)

Compound: CCCCCCCCCCCCCCCCCC(=O)O [Stearic acid (C18:0), Stearic acid]
Strain-selective antibacterial activity ([2]; pH 7.0): 24 | Strain-selective antibacterial activity at each pH ([2]; pH 7 (summary Table 10)): 24 | MIC (HL110PA3 strain (RT6) [3]; [5]): > 1000 µg/mL | MIC (HL110PA3 strain (RT6) [3]; 72 h, pH 5.5, estimated from the growth on day 3): > 1000 µg/mL | MIC (HL110PA3 strain (RT6) [3]; 96 h, pH 5.0, estimated from the growth on day 4): > 1000 µg/mL | MIC (HL110PA3 strain (RT6) [3]; pH 6.5): > 1000 µg/mL | MIC (HL110PA3 strain (RT6) [3]; pH 7.0): 1000 µg/mL (≈ 3520 µM) | MIC (HL053PA1 strain (RT4); [5]): > 1000 µg/mL | MIC (HL053PA1 strain (RT4); [7]): > 1000 µg/mL | MIC (HL053PA1 strain (RT4); pH 5.5): > 1000 µg/mL | MIC (HL053PA1 strain (RT4); pH 6.5): > 1000 µg/mL | MIC (HL053PA1 strain (RT4); pH 7.0): 62.5 µg/mL (≈ 220 µM) | MIC (HL043PA1 strain (RT5); [5]): > 1000 µg/mL | MIC (HL043PA1 strain (RT5); [7]): > 1000 µg/mL | MIC (HL043PA1 strain (RT5); pH 6.5): > 1000 µg/mL | MIC (HL043PA1 strain (RT5); pH 7.0): 31.3 µg/mL (≈ 110 µM)

Compound: Oc1cc(Cl)ccc1Oc1ccc(Cl)cc1Cl [Triclosan, reference compound]
Strain-selective antibacterial activity [2, 8]: 3.0 | MIC (HL110PA3 strain (RT6) [3]): 3.9 µg/mL (≈ 13.5 µM) | MIC (HL053PA1 strain (RT4)): 0.975 µg/mL (≈ 3.37 µM) | MIC (HL043PA1 strain (RT5)): 1.95 µg/mL (≈ 6.73 µM)

Compound: CCCCCCCCCCCCC(=O)O [Tridecanoic acid (C13:0), Tridecanoic acid, reference compound]
Strain-selective antibacterial activity ([2]; pH 6.0 (Example 1)): 0.75 | MIC (HL110PA3 strain (RT6) [3]; [5]): 15.6 µg/mL (≈ 72.8 µM) | MIC (HL053PA1 strain (RT4); [5]): 15.6 µg/mL (≈ 72.8 µM) | MIC (HL043PA1 strain (RT5); [5]): 31.3 µg/mL (≈ 146 µM)

Compound: Cc1cc(O)ccc1C(C)C [reference compound]
Strain-selective antibacterial activity [2, 8]: 0.50 | MIC against acne bacterium strain HL110PA3 strain (RT6) (HL110PA3 strain (RT6) [3]; [9]): 62.5 µg/mL (≈ 416 µM) | MIC against acne bacterium strain HL053PA1 strain (RT4) (HL053PA1 strain (RT4); [9]): 125 µg/mL (≈ 832 µM) | MIC against acne bacterium strain HL043PA1 strain (RT5) (HL043PA1 strain (RT5); [9]): 125 µg/mL (≈ 832 µM)

The next lines start with results.

MIC (HL110PA3 strain (RT6) [1]; [4]): > 1000 µg/mL | MIC (HL053PA1 strain (RT4); [4]): > 1000 µg/mL | MIC (HL043PA1 strain (RT5); [4]): > 1000 µg/mL
Compound: CCCCCCCCCCCCCCCCCC(=O)OCC(O)CO (stereo not drawn) [Monostearin]

MIC (HL110PA3 strain (RT6) [3]; [5]): 250 µg/mL (≈ 1580 µM) | MIC (HL053PA1 strain (RT4); [5]): 500 µg/mL (≈ 3160 µM) | MIC (HL043PA1 strain (RT5); [5]): 250 µg/mL (≈ 1580 µM)
Compound: CCCCCCCCC(=O)O [Nonanoic acid (C9:0), Nonanoic acid, reference compound]
Strain-selective antibacterial activity ([2]; pH 6.0 (Example 1)): 0.75

MIC (HL110PA3 strain (RT6) [1]; control antibiotics, Comparative Example 2, method as Example 1, LOD = MIC <0.48 ng/mL): 0.0038 µg/mL (≈ 0.00454 µM) | MIC (HL053PA1 strain (RT4); [6]): 500 µg/mL (≈ 597 µM) | MIC (HL043PA1 strain (RT5); [6]): 1000 µg/mL (≈ 1190 µM)
Compound: CC[C@H]1OC(=O)[C@H](C)[C@@H](O[C@H]2C[C@@](C)(OC)[C@@H](O)[C@H](C)O2)[C@H](C)[C@@H](O[C@@H]2O[C@H](C)C[C@H](N(C)C)[C@H]2O)[C@](C)(O)C[C@@H](C)/C(=N\OCOCCOC)[C@H](C)[C@@H](O)[C@]1(C)O [Roxithromycin, reference compound]

MIC (HL110PA3 strain (RT6) [3]; [5]): 15.6 µg/mL (≈ 83.7 µM) | MIC (HL053PA1 strain (RT4); [5]): 15.6 µg/mL (≈ 83.7 µM) | MIC (HL043PA1 strain (RT5); [5]): 15.6 µg/mL (≈ 83.7 µM)
Compound: CCCCCCCCCCC(=O)O [Undecanoic acid (C11:0), Undecanoic acid, reference compound]
Strain-selective antibacterial activity ([2]; pH 6.0 (Example 1)): 1.0
